Source: patent publication US20080267941A1, “Nutrition Comprising Betaine Against Muscle Wasting” (N. V. Nutricia, priority 2005, published 2008)
Counter-ions that a name gives are not always drawn.

System: muscles of normal healthy rats
Assay: Resting muscle glycogen levels in rats after 6 weeks of oral betaine supplementation
Format: in vivo, rat
Settings: for Resting glycogen levels in rats: male Wistar rats, 60 mg betaine in 1 ml vanilla custard orally each day for 6 weeks, *P < 0.05
Experimental: Experiments were performed on 8 male Wistar rats, 250-300 gram, which were housed individually, and had free access to water and food. All experimental procedures were approved by the Institutional Animal Care and Use Committee of the Netherlands, and complied with the principles of laboratory animal care. To determine the effect of oral betaine supplementation, the betaine group (n=4) received 1 ml vanilla custard each day in combination with 60 mg betaine (Sigma Aldrich), and the control group (n=4) received 1 ml vanilla custard. After 6 weeks of supplementation, the fast extensor digitorum longus, (EDL) and slow-(soleus) muscles were removed for further biochemical analysis and frozen in liquid nitrogen. Muscles were stored at −80° C. until analysis. Thereafter, muscles were freeze-dried during 3 days at −4° C. The freeze-dried muscles were crushed to powder, 400 μl 1M HCl was added to approximately 10 mg tissue and hydrolysed at 98° C. during 2 hours. After cooling down, 400 μl 1M NaOH was added to neutralize the samples and the samples were centrifuged 5 minutes at 13,000 rpm. Glycogen content was determined fluorimetrically by a glucose kit (Roche Diagnostics) and expressed as μmol glycosyl units·g^−1.

Compound: C[N+](C)(C)CC(=O)O [betaine, 1-carboxy-N,N,N-trimethylmethanaminium inner salt]
- Resting glycogen levels in rats (EDL (fast extensor digitorum longus) muscle): 120 + 4* μmol glycosyl units/g tissue
- Resting glycogen levels in rats (Soleus (slow) muscle): 137 ± 16* μmol glycosyl units/g tissue
- glycogen content of the muscle cells (rats given vanilla custard containing betaine vs vanilla custard control): significantly increases
